Reference: patent publication US7772263B2, “Compounds for the treatment of inflammatory disorders” (Schering Corporation, priority 2006, dated 2010)

Biological target: T1, purified catalytic domain of recombinant human TACE (rhTACEc) (Homo sapiens, UniProt P78536, N452Q/S266A)
T1 construct: rhTACEc, Residue 215 to 477 with two mutation (S266A and N4520) and a 6×His tail; 6xHis (C); made in house; host or cells: baculovirus/Hi5 insect cells
Assay: TACE kinetic assay, cleavage of internally quenched fluorescent peptide substrate SPDL-3
Assay type: biochemical
Conditions: TACE; class letters A-D; read-out: Ki Rating

T1 sequence (P78536 215-477 S266A/N452Q limits assumed): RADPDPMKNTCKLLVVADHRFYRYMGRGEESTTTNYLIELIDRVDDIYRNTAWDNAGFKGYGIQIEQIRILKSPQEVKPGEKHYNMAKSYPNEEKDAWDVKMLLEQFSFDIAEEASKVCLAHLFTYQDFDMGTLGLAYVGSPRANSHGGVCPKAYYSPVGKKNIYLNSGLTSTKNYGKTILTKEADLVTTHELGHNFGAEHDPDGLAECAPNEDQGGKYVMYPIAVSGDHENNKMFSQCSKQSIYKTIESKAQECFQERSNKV

Row | Structure (SMILES) | Ki [nM]
1 | COc1ccc2c(c1)C(=O)N(C[C@@]1(C#Cc3ccc(C)cc3)NC(=O)NC1=O)C2 [Compound 1156] | < 5
2 | COc1ccc2c(c1)C(=O)N(C[C@@]1(C#Cc3ccc(NC(C)=O)nc3)NC(=O)NC1=O)C2 [Compound 1157] | < 5
3 | O=C1NC(=O)[C@@](C#Cc2cccnc2)(CN2Cc3ccc(F)cc3C2=O)N1 [Compound 1200] | < 5
4 | COc1ccc2c(c1)CN(C[C@@]1(C#Cc3cc(F)cc(F)c3)NC(=O)NC1=O)C2=O [Compound 1201] | < 5
5 | COc1ccc2c(c1)CN(C[C@@]1(C#Cc3ccc(F)cc3F)NC(=O)NC1=O)C2=O [Compound 1202] | < 5
6 | COc1ccc2c(c1)C(=O)N(C[C@@]1(C#Cc3ccc4occc4c3)NC(=O)NC1=O)C2 [Compound 1203] | < 5
7 | COc1ccc2c(c1)C(=O)N(C[C@@]1(C#Cc3cn(C)c(=O)n(C)c3=O)NC(=O)NC1=O)C2 [Compound 1204] | < 5
8 | COc1ccc2c(c1)C(=O)N(C[C@@]1(C#Cc3c[nH]c(=O)[nH]c3=O)NC(=O)NC1=O)C2 [Compound 1205] | < 5
9 | COc1ccc2c(c1)C(=O)N(C[C@@]1(C#Cc3nc4ncnc(N)c4n3C)NC(=O)NC1=O)C2 [Compound 1208] | < 5
10 | O=C1NC(=O)[C@@](C#Cc2ccc3cnoc3c2)(CN2Cc3ccc(F)cc3C2=O)N1 [Compound 1211] | < 5
11 | COc1ccc2c(c1)C(=O)N(C[C@@]1(C#Cc3ccc4nn(C(C)C)cc4c3)NC(=O)NC1=O)C2 [Compound 1212] | < 5
12 | COc1ccc2c(c1)C(=O)N(C[C@@]1(C#Cc3ccc4c(cnn4C(C)C)c3)NC(=O)NC1=O)C2 [Compound 1213] | < 5
13 | COc1ccc2c(c1)C(=O)N(C[C@@]1(C#Cc3ccc4cnoc4c3)NC(=O)NC1=O)C2 [Compound 1214] | < 5
14 | COc1ccc2c(c1)C(=O)N(C[C@@]1(C#Cc3cncc(-c4nnn(C)n4)c3)NC(=O)NC1=O)C2 [Compound 1215] | < 5
15 | COc1ccc2c(c1)C(=O)N(C[C@@]1(C#Cc3ccc(N)c(OC(F)(F)F)c3)NC(=O)NC1=O)C2 [Compound 1216] | < 5
16 | COc1ccc2c(c1)C(=O)N(C[C@@]1(C#Cc3cc(F)c(F)cc3OC)NC(=O)NC1=O)C2 [Compound 1217] | < 5
17 | COc1ccc2c(c1)C(=O)N(C[C@@]1(C#Cc3ccc(F)cc3C#N)NC(=O)NC1=O)C2 [Compound 1218] | < 5
18 | COc1ccc2c(c1)C(=O)N(C[C@@]1(C#Cc3cc(C)ccc3C#N)NC(=O)NC1=O)C2 [Compound 1219] | < 5
19 | COc1ccc2c(c1)C(=O)N(C[C@@]1(C#Cc3ccc(-c4nnn(C)n4)s3)NC(=O)NC1=O)C2 [Compound 1220A] | < 5
20 | COc1ccc2c(c1)C(=O)N(C[C@@]1(C#Cc3ccc(C(C)=O)cc3)NC(=O)NC1=O)C2 [Compound 1220B] | < 5
21 | COc1ccc2c(c1)C(=O)N(C[C@@]1(C#Cc3ccc(S(C)(=O)=O)cc3)NC(=O)NC1=O)C2 [Compound 1220C] | > 100
22 | COc1ccc2c(c1)C(=O)N(C[C@@]1(C#Cc3ccc4c(c3)NC(=O)C4=O)NC(=O)NC1=O)C2 [Compound 1220D] | < 5
23 | COc1ccc2c(c1)C(=O)N(C[C@@]1(C#Cc3ncnc4[nH]ccc34)NC(=O)NC1=O)C2 [Compound 1220E] | < 5

Row | Structure (SMILES) | Ki [nM]
24 | COc1ccc2c(c1)C(=O)N(C[C@@]1(C#Cc3cncc(-c4nnn(C(C)C)n4)c3)NC(=O)NC1=O)C2 [Compound 1220] | < 5
25 | COc1ccc2c(c1)C(=O)N(C[C@@]1(C#Cc3cccnc3C3CC3)NC(=O)NC1=O)C2 [Compound 1221] | < 5
26 | COc1ccc2c(c1)C(=O)N(C[C@@]1(C#Cc3cnccc3C3CC3)NC(=O)NC1=O)C2 [Compound 1222] | < 5
27 | COc1ccc2c(c1)C(=O)N(C[C@@]1(C#Cc3ccc(C(N)=O)c([N+](=O)[O-])c3)NC(=O)NC1=O)C2 [Compound 1250] | < 5
28 | COc1ccc2c(c1)C(=O)N(C[C@@]1(C#Cc3ccc4c(c3)C(=O)NC4)NC(=O)NC1=O)C2 [Compound 1251] | < 5
29 | COc1ccc2c(c1)C(=O)N(C[C@@]1(C#Cc3cccc4c3CNC4=O)NC(=O)NC1=O)C2 [Compound 1252] | < 5
30 | COc1ccc2c(c1)C(=O)N(C[C@@]1(C#Cc3ccc4c(c3)CNC4=O)NC(=O)NC1=O)C2 [Compound 1253] | < 5
31 | COc1ccc2c(c1)C(=O)N(C[C@@]1(C#Cc3ccc(-c4cncnc4)nc3)NC(=O)NC1=O)C2 [Compound 1254] | < 5
32 | COc1ccc2c(c1)C(=O)N(C[C@@]1(C#Cc3cnc(-c4cccnc4)nc3)NC(=O)NC1=O)C2 [Compound 1256C] | < 5
33 | COc1ccc2c(c1)C(=O)N(C[C@@]1(C#Cc3ccc(-c4nnc(C)o4)nc3)NC(=O)NC1=O)C2 [Compound 1500] | < 5
34 | COc1ccc2c(c1)C(=O)N(C[C@@]1(C#Cc3ccc(-c4nnc(N)o4)nc3)NC(=O)NC1=O)C2 [Compound 1501] | < 5
35 | CCNc1nnc(-c2ccc(C#C[C@]3(CN4Cc5ccc(OC)cc5C4=O)NC(=O)NC3=O)cn2)o1 [Compound 1502] | < 5
36 | COc1ccc2c(c1)C(=O)N(C[C@@]1(C#Cc3cnc4ccccn34)NC(=O)NC1=O)C2 [Compound 1503] | < 5
37 | COc1ccc2c(c1)C(=O)N(C[C@@]1(C#Cc3cnc4ccc(Br)cn34)NC(=O)NC1=O)C2 [Compound 1504] | < 5
38 | COc1ccc2c(c1)C(=O)N(C[C@@]1(C#Cc3ccc4nc(C)cn4c3)NC(=O)NC1=O)C2 [Compound 1505] | < 5
39 | COc1ccc2c(c1)C(=O)N(C[C@@]1(C#Cc3n[nH]c4ccccc34)NC(=O)NC1=O)C2 [Compound 1506] | < 5
40 | COc1ccc2c(c1)C(=O)N(C[C@@]1(C#Cc3cc(F)ccn3)NC(=O)NC1=O)C2 [Compound 1507] | < 5
41 | COc1ccc2c(c1)C(=O)N(C[C@@]1(C#Cc3c4ccccc4nn3C)NC(=O)NC1=O)C2 [Compound 1508] | < 5
42 | COc1ccc2c(c1)C(=O)N(C[C@@]1(C#Cc3cc(C)ccc3O)NC(=O)NC1=O)C2 [Compound 1509] | < 5
43 | COc1ccc2c(c1)C(=O)N(C[C@@]1(C#Cc3cnn4ccccc34)NC(=O)NC1=O)C2 [Compound 1510] | < 5
44 | COC(=O)c1cc(C#C[C@]2(CN3Cc4ccc(OC)cc4C3=O)NC(=O)NC2=O)ccn1 [Compound 1511] | < 5
45 | COc1ccc2c(c1)C(=O)N(C[C@@]1(C#Cc3ccnc(C(N)=O)c3)NC(=O)NC1=O)C2 [Compound 1512] | < 5
46 | COc1ccc2c(c1)C(=O)N(C[C@@]1(C#Cc3ccc(C(N)=O)nc3)NC(=O)NC1=O)C2 [Compound 1513] | < 5

Row | Structure (SMILES) | Ki [nM]
47 | COC(=O)c1ccc(C#C[C@]2(CN3Cc4ccc(OC)cc4C3=O)NC(=O)NC2=O)cn1 [Compound 1514] | < 5
48 | COc1ccc2c(c1)C(=O)N(C[C@@]1(C#Cc3cnccc3C(N)=O)NC(=O)NC1=O)C2 [Compound 1515] | < 5
49 | COC(=O)c1ccncc1C#C[C@]1(CN2Cc3ccc(OC)cc3C2=O)NC(=O)NC1=O [Compound 1516] | < 5
50 | CNC(=O)c1ccc(C#C[C@]2(CN3Cc4ccc(OC)cc4C3=O)NC(=O)NC2=O)cn1 [Compound 1517] | < 5
51 | COc1ccc2c(c1)C(=O)N(C[C@@]1(C#Cc3ccc(C(=O)NC4CC4)nc3)NC(=O)NC1=O)C2 [Compound 1518] | < 5
52 | COc1ccc2c(c1)C(=O)N(C[C@@]1(C#Cc3cc(C)c(=O)n(C)c3)NC(=O)NC1=O)C2 [Compound 1519] | < 5
53 | COc1ccc2c(c1)C(=O)N(C[C@@]1(C#Cc3ccc4nnn(C)c4c3)NC(=O)NC1=O)C2 [Compound 1520] | < 5
54 | COc1ccc2c(c1)C(=O)N(C[C@@]1(C#Cc3ccc4nc(C(F)(F)F)cn4c3)NC(=O)NC1=O)C2 [Compound 1521] | < 5
55 | COc1ccc2c(c1)C(=O)N(C[C@@]1(C#Cc3ccc4[nH]nnc4c3)NC(=O)NC1=O)C2 [Compound 1522] | < 5
56 | COc1ccc2c(c1)C(=O)N(C[C@@]1(C#Cc3ccc4[nH]ncc4c3)NC(=O)NC1=O)C2 [Compound 1523] | < 5
57 | COc1ccc2c(c1)C(=O)N(C[C@@]1(C#Cc3c[nH]c(=O)c(C)c3)NC(=O)NC1=O)C2 [Compound 1524] | < 5
58 | CC#CCOc1ccc2c(c1)C(=O)N(C[C@@]1(C#Cc3ccc4cn(C)nc4c3)NC(=O)NC1=O)C2 [Compound 1533] | < 5
59 | Cc1cc(COc2ccc3c(c2)C(=O)N(C[C@@]2(C#Cc4cccnc4)NC(=O)NC2=O)C3)c2ccccc2n1 [Compound 1534] | < 5
60 | O=C1NC(=O)C(C#Cc2cnc3ccc(Br)cn23)(CN2Cc3ccc(OC(F)F)cc3C2=O)N1 (stereo not shown) [Compound 1535] | 5 to 25
61 | COc1ccc2c(c1)C(=O)N(C[C@@]1(C#Cc3ccc(C(=O)NS(C)(=O)=O)cc3)NC(=O)NC1=O)C2 [Compound 1550] | 5 to 25
62 | CCS(=O)(=O)NC(=O)c1ccc(C#C[C@]2(CN3Cc4ccc(OC)cc4C3=O)NC(=O)NC2=O)cc1 [Compound 1551] | < 5
63 | COc1ccc2c(c1)C(=O)N(C[C@@]1(C#Cc3cncc(C(C)=NO)c3)NC(=O)NC1=O)C2 [Compound 1552] | < 5
64 | COc1ccc2c(c1)C(=O)N(C[C@@]1(C#Cc3ccc(CC(C)=NO)cc3)NC(=O)NC1=O)C2 [Compound 1553] | < 5
65 | COc1ccc2c(c1)C(=O)N(C[C@@]1(C#Cc3ccc4c(C=NO)c[nH]c4c3)NC(=O)NC1=O)C2 [Compound 1554] | < 5
66 | COc1ccc2c(c1)C(=O)N(C[C@@]1(C#Cc3ccc(C4(C)NC(=O)N(C)C4=O)cc3)NC(=O)NC1=O)C2 (stereo partly shown) [Compound 1555] | < 5
67 | COc1ccc2c(c1)C(=O)N(C[C@@]1(C#Cc3cccc(C4(C)NC(=O)NC4=O)c3)NC(=O)NC1=O)C2 (stereo partly shown) [Compound 1556] | < 5
68 | COc1ccc2c(c1)C(=O)N(C[C@@]1(C#Cc3ccc4c(c3)C(=O)C(=O)N4)NC(=O)NC1=O)C2 [Compound 1557] | < 5

Same assay, conditions: rhTACEc 70 pM, 30 μM SPDL-3, 90 min pre-incubation at 25° C.; read-out: Ki (nM), TACE inhibitory activity

Row | Structure (SMILES) | Ki [nM]
69 | COc1ccc2c(c1)C(=O)N(C[C@@]1(C#Cc3ccc(C4(C)NC(=O)NC4=O)cc3)NC(=O)NC1=O)C2 (stereo partly shown) [Compound 1256] | 0.03
70 | CCNc1nnc(-c2ccc(C#C[C@]3(CN4Cc5ccc(OC)cc5C4=O)NC(=O)NC3=O)cn2)o1 [Compound 1502] | 0.094
